Experiments:
Assay type in all cases: in vivo
[1] = test system: barnyardgrass (Echinochloa crus-galli); experiment: Test G Pre-Emergence Protocol; conditions: Echinochloa crus-galli, pre-emergence, 312 h, evaluated after 13 days; for pest or weed control at 15.625 g/ha: 15.625 g ai/ha; for pest or weed control at 15.625 g/ha / pest or weed control at 250 g/ha: read-out: Barnyardgrass damage rating (100=total damage to plant; 0=no damage to plant); for pest or weed control at 62.5 g/ha: 62.5 g ai/ha, 100=total damage to plant, 0=no damage to plant, read-out: Barnyardgrass damage rating; for pest or weed control at 250 g/ha: 250 g ai/ha
How it was run: (§1)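 Pre-emergence spray, 15.625/62.5/250 g/ha, vehicle acetone:water 50:50 + 0.5% Tween 20, applied 1 d after sowing. Glasshouse 24/16° C, 14 h light, 65% RH, watered twice daily. Visual damage rating at 13 d, 0–100 scale.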

corn (Zea mays) [2] = experiment: Test G Pre-Emergence Protocol; conditions: Zea mays, pre-emergence, 312 h, evaluated after 13 days; for plant injury at 15.625 g/ha: 15.625 g ai/ha; for plant injury at 15.625 g/ha / plant injury at 250 g/ha: read-out: Corn damage rating (100=total damage to plant; 0=no damage to plant); for plant injury at 62.5 g/ha: 62.5 g ai/ha, 100=total damage to plant, 0=no damage to plant, read-out: Corn damage rating; for plant injury at 250 g/ha: 250 g ai/ha
How it was run: as §1

[3] = test system: giant foxtail (Setaria faberi); experiment: Test G Pre-Emergence Protocol; conditions: Setaria faberi, pre-emergence, 312 h, evaluated after 13 days; for pest or weed control at 15.625 g/ha: 15.625 g ai/ha; for pest or weed control at 15.625 g/ha / pest or weed control at 250 g/ha: read-out: Foxtail, Giant damage rating (100=total damage to plant; 0=no damage to plant); for pest or weed control at 62.5 g/ha: 62.5 g ai/ha, 100=total damage to plant, 0=no damage to plant, read-out: Foxtail, Giant damage rating; for pest or weed control at 250 g/ha: 250 g ai/ha
How it was run: as §1

[4] = test system: ivy-leaved morning glory (Ipomoea hederacea); experiment: Test G Pre-Emergence Protocol; conditions: Ipomoea, pre-emergence, 312 h, evaluated after 13 days; for pest or weed control at 15.625 g/ha: 15.625 g ai/ha; for pest or weed control at 15.625 g/ha / pest or weed control at 250 g/ha: read-out: Morningglory, Ivy-leaved damage rating (100=total damage to plant; 0=no damage to plant); for pest or weed control at 62.5 g/ha: 62.5 g ai/ha, 100=total damage to plant, 0=no damage to plant, read-out: Morningglory, Ivy-leaved damage rating; for pest or weed control at 250 g/ha: 250 g ai/ha
How it was run: as §1

[5] = test system: redroot pigweed (Amaranthus retroflexus); experiment: Test G Pre-Emergence Protocol; conditions: Amaranthus retroflexus, pre-emergence, 312 h, evaluated after 13 days; for pest or weed control at 15.625 g/ha: 15.625 g ai/ha; for pest or weed control at 15.625 g/ha / pest or weed control at 250 g/ha: read-out: Pigweed, Redroot damage rating (100=total damage to plant; 0=no damage to plant); for pest or weed control at 62.5 g/ha: 62.5 g ai/ha, 100=total damage to plant, 0=no damage to plant, read-out: Pigweed, Redroot damage rating; for pest or weed control at 250 g/ha: 250 g ai/ha
How it was run: as §1

[6] = test system: velvetleaf (Abutilon theophrasti); experiment: Test G Pre-Emergence Protocol; conditions: Abutilon theophrasti, pre-emergence, 312 h, evaluated after 13 days; for pest or weed control at 15.625 g/ha: 15.625 g ai/ha; for pest or weed control at 15.625 g/ha / pest or weed control at 250 g/ha: read-out: Velvetleaf damage rating (100=total damage to plant; 0=no damage to plant); for pest or weed control at 62.5 g/ha: 62.5 g ai/ha, 100=total damage to plant, 0=no damage to plant, read-out: Velvetleaf damage rating; for pest or weed control at 250 g/ha: 250 g ai/ha
How it was run: as §1

[7] = test system: barnyardgrass (Echinochloa crus-galli); experiment: Test G Post-Emergence Protocol; conditions: Echinochloa crus-galli, post-emergence, 312 h, read-out: Barnyardgrass damage rating; for pest or weed control at 15.625 g/ha: 15.625 g ai/ha, evaluated after 13 days (100=total damage to plant; 0=no damage to plant); for pest or weed control at 62.5 g/ha: 62.5 g ai/ha; for pest or weed control at 62.5 g/ha / pest or weed control at 250 g/ha: evaluated after 13 days, 100=total damage to plant, 0=no damage to plant; for pest or weed control at 250 g/ha: 250 g ai/ha
How it was run: (§2)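 A glasshouse post-emergence test: 8-day-old plants sprayed at 15.625, 62.5 or 250 g/ha, then grown at 24/16 °C day/night with 14 h light and 65% humidity. Damage rated 13 days later, 0–100.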

corn (Zea mays) [8] = experiment: Test G Post-Emergence Protocol; conditions: Zea mays, post-emergence, 312 h, read-out: Corn damage rating; for plant injury at 15.625 g/ha: 15.625 g ai/ha, evaluated after 13 days (100=total damage to plant; 0=no damage to plant); for plant injury at 62.5 g/ha: 62.5 g ai/ha; for plant injury at 62.5 g/ha / plant injury at 250 g/ha: evaluated after 13 days, 100=total damage to plant, 0=no damage to plant; for plant injury at 250 g/ha: 250 g ai/ha
How it was run: as §2

[9] = test system: giant foxtail (Setaria faberi); experiment: Test G Post-Emergence Protocol; conditions: Setaria faberi, post-emergence, 312 h, read-out: Foxtail, Giant damage rating; for pest or weed control at 15.625 g/ha: 15.625 g ai/ha, evaluated after 13 days (100=total damage to plant; 0=no damage to plant); for pest or weed control at 62.5 g/ha: 62.5 g ai/ha; for pest or weed control at 62.5 g/ha / pest or weed control at 250 g/ha: evaluated after 13 days, 100=total damage to plant, 0=no damage to plant; for pest or weed control at 250 g/ha: 250 g ai/ha
How it was run: as §2

[10] = test system: ivy-leaved morning glory (Ipomoea hederacea); experiment: Test G Post-Emergence Protocol; conditions: Ipomoea, post-emergence, 312 h, read-out: Morningglory, Ivy-leaved damage rating; for pest or weed control at 15.625 g/ha: 15.625 g ai/ha, evaluated after 13 days (100=total damage to plant; 0=no damage to plant); for pest or weed control at 62.5 g/ha: 62.5 g ai/ha; for pest or weed control at 62.5 g/ha / pest or weed control at 250 g/ha: evaluated after 13 days, 100=total damage to plant, 0=no damage to plant; for pest or weed control at 250 g/ha: 250 g ai/ha
How it was run: as §2

[11] = test system: redroot pigweed (Amaranthus retroflexus); experiment: Test G Post-Emergence Protocol; conditions: Amaranthus retroflexus, post-emergence, 312 h, read-out: Pigweed, Redroot damage rating; for pest or weed control at 15.625 g/ha: 15.625 g ai/ha, evaluated after 13 days (100=total damage to plant; 0=no damage to plant); for pest or weed control at 62.5 g/ha: 62.5 g ai/ha; for pest or weed control at 62.5 g/ha / pest or weed control at 250 g/ha: evaluated after 13 days, 100=total damage to plant, 0=no damage to plant; for pest or weed control at 250 g/ha: 250 g ai/ha
How it was run: as §2

[12] = test system: velvetleaf (Abutilon theophrasti); experiment: Test G Post-Emergence Protocol; conditions: Abutilon theophrasti, post-emergence, 312 h, read-out: Velvetleaf damage rating; for pest or weed control at 15.625 g/ha: 15.625 g ai/ha, evaluated after 13 days (100=total damage to plant; 0=no damage to plant); for pest or weed control at 62.5 g/ha: 62.5 g ai/ha; for pest or weed control at 62.5 g/ha / pest or weed control at 250 g/ha: evaluated after 13 days, 100=total damage to plant, 0=no damage to plant; for pest or weed control at 250 g/ha: 250 g ai/ha
How it was run: as §2

## COc1cc(C2CN(C)C(=O)C2C(=O)Nc2cccc(F)c2F)cc(C)c1C (stereo not drawn) [Compound 1713]
[1]
  pest or weed control at 15.625 g/ha: 30%
  pest or weed control at 62.5 g/ha: 70%
  pest or weed control at 250 g/ha: 90%
Corn (Zea mays) [2]
  plant injury at 15.625 g/ha: 10%
  plant injury at 62.5 g/ha: 20%
  plant injury at 250 g/ha: 90%
[3]
  pest or weed control at 15.625 g/ha: 50%
  pest or weed control at 62.5 g/ha: 70%
  pest or weed control at 250 g/ha: 90%
[4]
  pest or weed control at 15.625 g/ha: 0%
  pest or weed control at 62.5 g/ha: 0%
  pest or weed control at 250 g/ha: 0%
[5]
  pest or weed control at 15.625 g/ha: 0%
  pest or weed control at 62.5 g/ha: 0%
  pest or weed control at 250 g/ha: 0%
[6]
  pest or weed control at 15.625 g/ha: 0%
  pest or weed control at 62.5 g/ha: 0%
  pest or weed control at 250 g/ha: 0%
[7]
  pest or weed control at 15.625 g/ha: 10%
  pest or weed control at 62.5 g/ha: 80%
  pest or weed control at 250 g/ha: 80%
Corn (Zea mays) [8]
  plant injury at 15.625 g/ha: 0%
  plant injury at 62.5 g/ha: 50%
  plant injury at 250 g/ha: 80%
[9]
  pest or weed control at 15.625 g/ha: 60%
  pest or weed control at 62.5 g/ha: 80%
  pest or weed control at 250 g/ha: 80%
[10]
  pest or weed control at 15.625 g/ha: 20%
  pest or weed control at 62.5 g/ha: 60%
  pest or weed control at 250 g/ha: 70%
[11]
  pest or weed control at 15.625 g/ha: 0%
  pest or weed control at 62.5 g/ha: 0%
  pest or weed control at 250 g/ha: 0%
[12]
  pest or weed control at 15.625 g/ha: 0%
  pest or weed control at 62.5 g/ha: 0%
  pest or weed control at 250 g/ha: 20%

## CN1C[C@H](c2cccc(C(F)F)c2)[C@@H](C(=O)Nc2ccccc2S(C)(=O)=O)C1=O (racemic) [Compound 1800]
[1]
  pest or weed control at 15.625 g/ha: 10%
  pest or weed control at 62.5 g/ha: 40%
  pest or weed control at 250 g/ha: 80%
Corn (Zea mays) [2]
  plant injury at 15.625 g/ha: 0%
  plant injury at 62.5 g/ha: 0%
  plant injury at 250 g/ha: 0%
[3]
  pest or weed control at 15.625 g/ha: 20%
  pest or weed control at 62.5 g/ha: 70%
  pest or weed control at 250 g/ha: 90%
[4]
  pest or weed control at 15.625 g/ha: 0%
  pest or weed control at 62.5 g/ha: 0%
  pest or weed control at 250 g/ha: 0%
[5]
  pest or weed control at 15.625 g/ha: 10%
  pest or weed control at 62.5 g/ha: 20%
  pest or weed control at 250 g/ha: 10%
[6]
  pest or weed control at 15.625 g/ha: 0%
  pest or weed control at 62.5 g/ha: 10%
  pest or weed control at 250 g/ha: 0%
[7]
  pest or weed control at 15.625 g/ha: 0%
  pest or weed control at 62.5 g/ha: 10%
  pest or weed control at 250 g/ha: 80%
Corn (Zea mays) [8]
  plant injury at 15.625 g/ha: 0%
  plant injury at 62.5 g/ha: 0%
  plant injury at 250 g/ha: 0%
[9]
  pest or weed control at 15.625 g/ha: 0%
  pest or weed control at 62.5 g/ha: 20%
  pest or weed control at 250 g/ha: 70%
[10]
  pest or weed control at 15.625 g/ha: 0%
  pest or weed control at 62.5 g/ha: 10%
  pest or weed control at 250 g/ha: 20%
[11]
  pest or weed control at 15.625 g/ha: 0%
  pest or weed control at 62.5 g/ha: 10%
  pest or weed control at 250 g/ha: 10%
[12]
  pest or weed control at 15.625 g/ha: 0%
  pest or weed control at 62.5 g/ha: 0%
  pest or weed control at 250 g/ha: 0%
